Test results published in patent US20120214847A1, “2-[1-PHENYL-5-HYDROXY-4a-SUBSTITUTED-HEXAHYDROCYCLOPENTA[F]INDAZOL-5-YL]ETHYL PHENYL DERIVATIVES AS GLUCOCORTICOID RECEPTOR LIGANDS” (Merck Sharp & Dohme Corp., priority 2009, published 2012).
pKi: −log10 of the molar value.

molecular target: T1, glucocorticoid receptor (Homo sapiens, UniProt P04150); experiment: Ligand binding assay (GRBind), 3H-dexamethasone displacement in HeLa cell lysate; conditions: 3H-DEX tracer
T1 construct: endogenous in cells; host or cells: HeLa (ATCC) cell lysate supernatant
T1 sequence (P04150 1-777): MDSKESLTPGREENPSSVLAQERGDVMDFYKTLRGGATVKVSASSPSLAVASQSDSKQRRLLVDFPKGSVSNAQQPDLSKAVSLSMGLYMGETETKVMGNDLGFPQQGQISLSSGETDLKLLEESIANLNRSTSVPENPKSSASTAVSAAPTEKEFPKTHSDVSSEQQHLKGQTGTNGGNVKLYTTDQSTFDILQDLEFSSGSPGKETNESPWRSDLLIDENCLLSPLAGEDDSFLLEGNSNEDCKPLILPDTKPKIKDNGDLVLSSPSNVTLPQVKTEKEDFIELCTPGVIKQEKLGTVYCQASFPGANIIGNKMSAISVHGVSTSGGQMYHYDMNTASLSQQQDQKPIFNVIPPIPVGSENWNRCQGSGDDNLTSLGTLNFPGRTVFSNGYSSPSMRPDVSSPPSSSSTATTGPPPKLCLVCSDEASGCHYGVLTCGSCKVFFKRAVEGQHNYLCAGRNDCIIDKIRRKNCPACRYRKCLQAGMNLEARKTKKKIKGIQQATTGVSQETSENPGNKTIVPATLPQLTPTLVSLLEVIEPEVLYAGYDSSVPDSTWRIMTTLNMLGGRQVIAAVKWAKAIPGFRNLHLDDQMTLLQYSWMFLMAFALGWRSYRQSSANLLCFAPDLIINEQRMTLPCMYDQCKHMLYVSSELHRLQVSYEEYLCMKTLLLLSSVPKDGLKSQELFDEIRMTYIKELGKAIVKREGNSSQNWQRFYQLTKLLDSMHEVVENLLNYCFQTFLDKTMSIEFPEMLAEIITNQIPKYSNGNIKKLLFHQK
Outline: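 Cytosolic supernatant from HeLa cells in TEGM buffer (pH 7.2, with molybdate) was incubated overnight at 4 °C with 3H-dexamethasone (6 nM trace solution) and serially diluted compound, with 2% ethanol. Bound receptor was captured on hydroxylapatite, filtered and counted by scintillation. IC50s were calculated using dexamethasone as reference.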

Q: With `CC[C@]12Cc3cnn(-c4ccc(F)cc4)c3C=C1CC[C@@]2(O)CCc1ncccc1S(C)(=O)=O` [Example 80, (4aS,5R)-4a-Ethyl-1-(4-fluorophenyl)-5-{2-[3-(methylsulfonyl)pyridin-2-yl]ethyl}-1,4,4a,5,6,7-hexahydrocyclopenta[f]indazol-5-ol] as the compound, how does the pKi read?
A: 8.88

Q: `OCc1ccccc1CC[C@]1(O)CCC2=Cc3c(cnn3-c3ccc(F)cc3)C[C@@]21C1CC1` [Example 2, (4aR,5R)-4a-Cyclopropyl-1-(4-fluorophenyl)-5-{2-[2-(hydroxymethyl)phenyl]ethyl}-1,4,4a,5,6,7-hexahydrocyclopenta[f]indazol-5-ol] was tested. Which pKi did it give?
A: 8.88

Q: `NC(=O)C(O)c1ccccc1CC[C@]1(O)CCC2=Cc3c(cnn3-c3ccc(F)cc3)C[C@@]21C1CC1` (single isomer, unassigned) [Example 3a] was tested. Which pKi did it give?
A: 8.74

Q: `CC[C@]12Cc3cnn(-c4ccccc4)c3C=C1CC[C@@]2(O)CC(O)c1ccccn1` (single isomer, unassigned) [Example 82a] was tested. Which pKi did it give?
A: 7.95

Q: With `CC[C@]12Cc3cnn(-c4ccccc4)c3C=C1CC[C@@]2(O)CCc1ncccc1S(=O)(=O)C(C)C` [Example 81, (4aS,5R)-4a-Ethyl-5-{2-[3-(iso-propylsulfonyl)pyridin-2-yl]ethyl}-1-phenyl-1,4,4a,5,6,7-hexahydrocyclopenta[f]indazol-5-ol] as the compound, how does the pKi read?
A: 8.14

Q: With `OC(C[C@]1(O)CCC2=Cc3c(cnn3-c3ccc(F)cc3)C[C@@]21C1CC1)c1ccc(F)cn1` (single isomer, unassigned) [Example 79b] as the compound, how does the pKi read?
A: 8.81

Q: With `CC[C@]12Cc3cnn(-c4ccccc4)c3C=C1CC[C@@]2(O)CC(O)c1ccccn1` (single isomer, unassigned) [Example 82b] as the compound, how does the pKi read?
A: 8.26
